Earlier results on one molecule are cited in patent US9969773B2, “Polymers, pharmaceutical compositions and methods of synthesizing the same” (NEW YORK UNIVERSITY, priority 2014, dated 2018).

Each structure is given as a SMILES string.

As for `CC[C@H](C)[C@H](NC(=O)[C@H](CCC(=O)O)NC(=O)[C@H](CO)NC(=O)[C@@H](NC(=O)[C@@H](N)CO)C(C)C)C(=O)N[C@@H](CCC(N)=O)C(=O)N[C@@H](CC(C)C)C(=O)N[C@@H](CCSC)C(=O)N[C@@H](Cc1cnc[nH]1)C(=O)N[C@@H](CC(N)=O)C(=O)N[C@@H](CC(C)C)C(=O)NCC(=O)N[C@@H](CCCCN)C(=O)N[C@@H](Cc1cnc[nH]1)C(=O)N[C@@H](CC(C)C)C(=O)N[C@@H](CC(N)=O)C(=O)N[C@@H](CO)C(=O)N[C@@H](CCSC)C(=O)N[C@@H](CCC(=O)O)C(=O)N[C@@H](CCCN=C(N)N)C(=O)N[C@H](C(=O)N[C@@H](CCC(=O)O)C(=O)N[C@@H](Cc1c[nH]c2ccccc12)C(=O)N[C@@H](CC(C)C)C(=O)N[C@@H](CCCN=C(N)N)C(=O)N[C@@H](CCCCN)C(=O)N[C@@H](CCCCN)C(=O)N[C@@H](CC(C)C)C(=O)N[C@@H](CCC(N)=O)C(=O)N[C@@H](CC(=O)O)C(=O)N[C@H](C(=O)N[C@@H](Cc1cnc[nH]1)C(=O)N[C@@H](CC(N)=O)C(=O)N[C@@H](Cc1ccccc1)C(=O)O)C(C)C)C(C)C` [PTH (1-34), parathyroid hormone (1-34)], the half-life in serum is recorded as ~5 min.
